Reference: patent publication US20230159467A1, “NOVEL COMPOUNDS USEFUL IN THE TREATMENT AND/OR PREVENTION OF A DISEASE, DISORDER OR CONDITION ASSOCIATED WITH ANGIOTENSIN II” (Vicore Pharma AB, priority 2020, published 2023)
pKi: −log10 of the molar value. Values after ≈ are worked out from the molar mass of the structure shown.

What was measured:
[1] = target: T1, human AT2R (Homo sapiens, UniProt P50052); assay type: binding; settings: HEK-293 cell membranes
T1 construct: host or cells: HEK-293
T1 sequence (P50052 1-363): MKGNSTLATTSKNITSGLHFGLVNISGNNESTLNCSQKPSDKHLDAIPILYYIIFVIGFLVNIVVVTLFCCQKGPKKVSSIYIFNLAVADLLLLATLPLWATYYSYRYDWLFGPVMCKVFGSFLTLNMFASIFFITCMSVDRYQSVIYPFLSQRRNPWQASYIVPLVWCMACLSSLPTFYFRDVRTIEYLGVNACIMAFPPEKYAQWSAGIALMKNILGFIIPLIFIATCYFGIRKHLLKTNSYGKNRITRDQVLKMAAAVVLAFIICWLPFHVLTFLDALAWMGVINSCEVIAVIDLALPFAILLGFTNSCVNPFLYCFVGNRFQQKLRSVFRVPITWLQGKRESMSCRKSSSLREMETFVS

[2] = Stability in rat liver microsomes; assay type: in vitro ADME; settings: half-life
Protocol: Stability in liver microsomes. Human, mouse and rat liver microsomes were used to assess the metabolic stability for the compounds. Metabolic stability was determined in 0.5 mg/mL human, mouse or rat liver microsomes at a compound concentration of 1 μM in 100 mM potassium phosphate buffer (pH 7.4) in a total incubation volume of 500 μL by Eurofins. The assay matrix was: human liver microsomes: mixed gender and pool of 50, rat liver microsomes: male, Sprague-Dawley, pool of 100 or more and mouse liver microsomes: male,CD-1, pool of 250 or more. Final microsomal protein concentration: 0.1mg/mL. The test concentration was 0.1 μM with 0.01% DMSO, 0.25% acetonitrile and 0.25% methanol by default. […] The reaction was initiated by adding NADPH-generating system and was incubated for 0, 15, 30, 45, and 60 min. The reaction was stopped by transferring the incubation mixture to acetonitrile/methanol. Samples were then mixed and centrifuged. Four reference compounds were tested in each assay. Propranolol and imipramine are relatively stable, whereas verapamil and terfenadine are readily metabolized inhuman liver microsomes. Samples were analyzed by HPLC-MS/MS using selected reaction monitoring. The HPLC system consisted of a binary LC pump with autosampler, a C-18 column, and a gradient. Peak areas corresponding to the test compound were recorded. The compound remaining was calculated by comparing the peak area at each time point to time zero. The half-life was calculated from the slope of the initial linear range of the logarithmic curve of compound remaining (%) vs. time, assuming first order kinetics. In addition, the intrinsic clearance (Clint) was calculated.^19,20

[3] = Kinetic solubility in PBS pH 7.4; assay type: physicochemical; settings: Dulbecco's PBS buffer, aqueous buffer, kinetic from dmso stock; PBS pH 7.4, 24 h room temperature, 2% DMSO
Protocol: Kinetic solubility. Dulbecco's PBS buffer was used (NaCl 137 mM, KCl 2.7 mM, Na2HPO4 8.1 mM, KH2PO4 1.5 mM with pH 7.4). The test compound is prepared at 200 μM in the PBS buffer from a 10 mM DMSO stock solution. The final DMSO concentration is 2%. The buffer samples were mixed thoroughly followed by incubation at room temperature for 24 h. At the end of the incubation, the buffer samples were centrifuged and supernatants were then injected for the HPLC analysis. A calibration standard of the test compound was prepared at 200 μM in methanol/water (3/2, v/v) from a 10 mM DMSO stock solution on the day of HPLC analysis. The analysis was conducted by HPLC-UV/VIS with photodiode array detection, with monitoring at 205, 230, 260, and 300 nm wavelengths. The HPLC system consisted of a C18 column using a gradient of A and B (A=12 mM ammonium formate, 6 mM formic acid in water, pH 4.0, B=6 mM ammonium formate, 3 mM formic acid acetonitrile/water (9/1, v/v)). Reference compounds used were metoprolol, rifampicin, ketoconazole, phenytoin, haloperidol, simvastatin, diethylstilbestrol, and tamoxifen, ranking from fully soluble (200 μM) to poorly soluble (<1μM). […] The range of the assay was approximately 0.5 μM to 200 μM. The chromatographic purity (%) was determined as the peak area of the principal peak relative to the total integrated peak areas in the HPLC chromatogram of the calibration standard.

[4] = tested on: CYP3A; assay: CYP450 inhibition assay, pooled human liver microsomes, midazolam substrate; settings: for inhibition at 10 min, 10 µM: both, human, pooled human liver microsomes, pH 7.4, probe midazolam; for CYP 450 Inhibition CYP3A midazolam: at 10 μM, midazolam substrate
[5] = target: T2, CYP1A (Homo sapiens, UniProt P05177); assay: CYP450 inhibition assay, pooled human liver microsomes, phenacetin substrate; settings: for inhibition at 10 min, 10 µM: both, human, pooled human liver microsomes, pH 7.4, probe phenacetin; for CYP 450 Inhibition CYP1A: at 10 μM
T2 sequence (P05177 1-516): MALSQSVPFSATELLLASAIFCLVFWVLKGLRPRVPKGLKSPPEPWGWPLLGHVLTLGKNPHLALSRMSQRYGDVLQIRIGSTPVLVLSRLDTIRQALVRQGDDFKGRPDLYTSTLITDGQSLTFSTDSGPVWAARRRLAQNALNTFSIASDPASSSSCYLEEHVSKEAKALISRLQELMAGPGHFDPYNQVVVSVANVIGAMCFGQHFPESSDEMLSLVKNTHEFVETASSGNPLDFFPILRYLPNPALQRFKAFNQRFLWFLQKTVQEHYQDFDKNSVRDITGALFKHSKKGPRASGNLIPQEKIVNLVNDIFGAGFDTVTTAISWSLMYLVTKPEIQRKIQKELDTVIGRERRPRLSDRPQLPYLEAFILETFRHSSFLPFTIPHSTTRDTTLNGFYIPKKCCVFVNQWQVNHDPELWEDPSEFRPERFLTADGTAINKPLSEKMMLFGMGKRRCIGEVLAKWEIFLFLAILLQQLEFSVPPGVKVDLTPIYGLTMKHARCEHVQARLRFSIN

[6] = target: CYP2C9 (Homo sapiens, UniProt P11712); assay: CYP450 inhibition assay, pooled human liver microsomes, diclofenac substrate; settings: for inhibition at 10 min, 10 µM: both, human, pooled human liver microsomes, pH 7.4, probe diclofenac; for CYP 450 Inhibition CYP2C9: at 10 μM
Chain of CYP2C9 (P11712 whole entry): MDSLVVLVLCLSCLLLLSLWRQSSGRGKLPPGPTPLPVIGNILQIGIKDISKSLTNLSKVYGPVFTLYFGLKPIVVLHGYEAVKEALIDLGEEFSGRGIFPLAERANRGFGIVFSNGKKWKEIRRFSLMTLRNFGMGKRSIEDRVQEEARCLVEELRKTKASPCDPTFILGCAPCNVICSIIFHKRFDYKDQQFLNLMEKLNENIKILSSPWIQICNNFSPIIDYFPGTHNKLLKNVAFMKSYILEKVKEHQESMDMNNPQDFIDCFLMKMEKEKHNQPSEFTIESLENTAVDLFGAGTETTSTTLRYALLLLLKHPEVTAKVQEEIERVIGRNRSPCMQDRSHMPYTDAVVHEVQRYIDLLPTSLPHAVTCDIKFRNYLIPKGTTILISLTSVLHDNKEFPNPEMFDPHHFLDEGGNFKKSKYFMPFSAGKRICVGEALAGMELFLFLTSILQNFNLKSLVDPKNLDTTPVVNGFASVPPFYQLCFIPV

[7] = target: CYP2C19 (Homo sapiens, UniProt P33261); assay: CYP450 inhibition assay, pooled human liver microsomes, omeprazole substrate; settings: for inhibition at 10 min, 10 µM: both, human, pooled human liver microsomes, pH 7.4, probe omeprazole; for CYP 450 Inhibition CYP2C19: at 10 μM
Chain of CYP2C19 (P33261 whole entry): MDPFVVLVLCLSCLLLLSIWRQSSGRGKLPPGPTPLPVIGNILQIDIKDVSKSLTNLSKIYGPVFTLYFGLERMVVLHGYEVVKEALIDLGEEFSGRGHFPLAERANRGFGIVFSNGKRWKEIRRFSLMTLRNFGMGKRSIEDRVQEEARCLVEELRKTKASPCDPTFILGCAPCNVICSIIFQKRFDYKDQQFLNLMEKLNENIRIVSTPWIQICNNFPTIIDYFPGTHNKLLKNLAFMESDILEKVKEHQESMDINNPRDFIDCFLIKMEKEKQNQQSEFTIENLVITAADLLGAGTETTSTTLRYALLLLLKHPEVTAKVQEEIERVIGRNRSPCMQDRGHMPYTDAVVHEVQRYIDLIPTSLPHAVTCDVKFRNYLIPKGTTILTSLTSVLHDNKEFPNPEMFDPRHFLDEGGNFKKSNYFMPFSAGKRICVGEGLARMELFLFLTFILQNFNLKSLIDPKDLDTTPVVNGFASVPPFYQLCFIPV

[8] = tested on: CYP3A; assay: CYP450 inhibition assay, pooled human liver microsomes, testosterone substrate; settings: both, human, pooled human liver microsomes, pH 7.4, probe testosterone, CYP 450 Inhibition CYP3A testosterone, at 10 μM

SMILES | pKi [1] | Stability in liver microsomes RLM [2] | solubility kinetic at 24 h [3] | inhibition at 10 min, 10 µM [4] | inhibition at 10 min, 10 µM [5] | inhibition at 10 min, 10 µM [6] | inhibition at 10 min, 10 µM [7] | inhibition at 10 min, 10 µM [8] | CYP 450 Inhibition CYP3A midazolam [4] | CYP 450 Inhibition CYP1A [5] | CYP 450 Inhibition CYP2C9 [6] | CYP 450 Inhibition CYP2C19 [7]
COC(=O)[N-]S(=O)(=O)c1ccc(CC(C)C)cc1-c1ccc(Cn2ccnc2C(C)(C)O)cc1.[K+] [Example 8B, Potassium ((4′-((2-(2-hydroxypropan-2-yl)-1H-imidazol-1-yl)methyl)-5-isobutyl-[1,1′-biphenyl]-2-yl)sulfonyl)(methoxycarbonyl)amide] | 8.49 | 41 min | > 200 µM | 1.3% | 5.7% | 92% | 45% | 10.7% |  |  |  | 
CCCCOC(=O)NS(=O)(=O)c1sc(CC(C)C)nc1-c1ccc(Cn2ccnc2C(C)(C)C)cc1 [Example 4, Butyl ((4-(4-((2-(tert-butyl)-1H-imidazol-1-yl)methyl)phenyl)-2-isobutylthiazol-5-yl)sulfonyl) carbamate] | 7.74 | 12 min | 180 µM (≈ 95.9 µg/mL) |  |  |  |  | 7.5% | 24% | −7.3% | 68% | 66%
COC(=O)NS(=O)(=O)c1ccc(CC(C)C)cc1-c1ccc(Cn2ccnc2C(C)(C)C)cc1 [Example 1A, Methyl ((4′-((2-(tert-butyl)-1H-imidazol-1-yl)methyl)-5-isobutyl-[1,1′-biphenyl]-2-yl)sulfonyl)carbamate] | 8.96 | >60 min | 140 µM (≈ 67.7 µg/mL) | 0% | 11% | 37% | 38% | 14% |  |  |  | 
COC(=O)NS(=O)(=O)c1sc(CC(C)C)nc1-c1ccc(Cn2ccnc2C(C)(C)C)cc1 [Example 3, Methyl ((4-(4-((2-(tert-butyl)-1H-imidazol-1-yl)methyl)phenyl)-2-isobutylthiazol-5-yl)sulfonyl) carbamate] | 7.54 | >60 min | 195 µM (≈ 95.7 µg/mL) |  |  |  |  | 2.7% | 5.4% | 8.4% | 23% | 38%
CCCCOC(=O)[N-]S(=O)(=O)c1sc(CC(C)C)cc1-c1ccc(Cn2ccnc2C(C)(C)C)cc1.[K+] [Example 11B, Potassium (butoxycarbonyl)((3-(4-((2-(tert-butyl)-1H-imidazol-1-yl)methyl)phenyl)-5-isobutylthiophen-2-yl)sulfonyl)amide] | 8.18 | 18 min | > 200 µM | -5.1% | 8.4% | 88% | 66% | 21% |  |  |  | 
